{"source": "patent US20250034108A1", "about": "“SODIUM CHANNEL BLOCKERS” (NOVARTIS AG, priority 2023, published 2025)"}
{"biological_target": "T1, human Nav1.5 (Homo sapiens (Human), UniProt Q14524)", "T1 sequence (Q14524 whole entry)": "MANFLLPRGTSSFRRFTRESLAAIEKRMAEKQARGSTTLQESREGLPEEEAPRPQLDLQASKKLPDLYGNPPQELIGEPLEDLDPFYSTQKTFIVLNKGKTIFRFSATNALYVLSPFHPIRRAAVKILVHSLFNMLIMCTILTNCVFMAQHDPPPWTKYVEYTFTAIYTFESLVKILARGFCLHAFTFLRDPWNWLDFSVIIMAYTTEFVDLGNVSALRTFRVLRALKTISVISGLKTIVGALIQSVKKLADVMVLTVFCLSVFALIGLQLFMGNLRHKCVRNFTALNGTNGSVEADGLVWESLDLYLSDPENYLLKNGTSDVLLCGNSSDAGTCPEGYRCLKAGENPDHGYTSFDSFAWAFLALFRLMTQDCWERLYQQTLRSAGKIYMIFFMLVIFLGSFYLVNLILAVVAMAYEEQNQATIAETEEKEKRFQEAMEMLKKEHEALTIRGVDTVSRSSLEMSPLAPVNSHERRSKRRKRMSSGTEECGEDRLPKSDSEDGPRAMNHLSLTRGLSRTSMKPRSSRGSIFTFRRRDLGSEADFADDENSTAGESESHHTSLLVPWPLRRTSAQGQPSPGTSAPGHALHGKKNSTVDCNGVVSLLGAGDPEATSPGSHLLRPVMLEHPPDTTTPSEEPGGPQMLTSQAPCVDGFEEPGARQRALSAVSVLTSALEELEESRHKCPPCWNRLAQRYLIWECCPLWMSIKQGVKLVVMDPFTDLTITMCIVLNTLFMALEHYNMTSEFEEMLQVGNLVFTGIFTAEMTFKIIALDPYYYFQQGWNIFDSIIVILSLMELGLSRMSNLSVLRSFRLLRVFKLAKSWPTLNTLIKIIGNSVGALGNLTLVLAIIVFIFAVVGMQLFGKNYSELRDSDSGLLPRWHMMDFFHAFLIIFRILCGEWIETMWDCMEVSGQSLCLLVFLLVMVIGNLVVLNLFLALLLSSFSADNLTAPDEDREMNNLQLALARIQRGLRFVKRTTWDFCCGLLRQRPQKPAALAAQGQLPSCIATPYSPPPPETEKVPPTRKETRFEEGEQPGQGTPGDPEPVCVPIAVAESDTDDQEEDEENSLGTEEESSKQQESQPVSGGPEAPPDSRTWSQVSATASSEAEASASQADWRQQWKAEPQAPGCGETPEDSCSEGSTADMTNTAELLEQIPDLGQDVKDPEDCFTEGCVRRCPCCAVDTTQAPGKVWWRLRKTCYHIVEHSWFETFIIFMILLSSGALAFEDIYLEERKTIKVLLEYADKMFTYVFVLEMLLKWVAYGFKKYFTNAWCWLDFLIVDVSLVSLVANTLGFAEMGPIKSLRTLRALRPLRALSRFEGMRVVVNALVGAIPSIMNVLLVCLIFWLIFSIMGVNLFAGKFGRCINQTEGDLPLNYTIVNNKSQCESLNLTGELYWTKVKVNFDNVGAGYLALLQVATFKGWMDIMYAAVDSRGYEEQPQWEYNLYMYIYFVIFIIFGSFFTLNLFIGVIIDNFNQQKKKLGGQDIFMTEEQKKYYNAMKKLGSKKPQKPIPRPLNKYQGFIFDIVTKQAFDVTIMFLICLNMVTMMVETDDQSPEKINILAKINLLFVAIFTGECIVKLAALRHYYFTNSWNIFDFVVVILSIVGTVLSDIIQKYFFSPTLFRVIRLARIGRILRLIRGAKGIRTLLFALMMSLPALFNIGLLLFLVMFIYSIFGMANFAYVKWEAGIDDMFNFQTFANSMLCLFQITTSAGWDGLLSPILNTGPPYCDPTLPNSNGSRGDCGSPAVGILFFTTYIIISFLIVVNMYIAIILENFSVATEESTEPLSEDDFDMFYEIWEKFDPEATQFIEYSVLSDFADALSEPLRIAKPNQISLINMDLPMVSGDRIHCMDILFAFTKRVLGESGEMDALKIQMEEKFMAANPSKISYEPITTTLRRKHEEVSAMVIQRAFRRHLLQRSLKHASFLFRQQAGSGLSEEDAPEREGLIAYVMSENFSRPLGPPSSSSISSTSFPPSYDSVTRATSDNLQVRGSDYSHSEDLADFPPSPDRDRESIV", "assay": "Qpatch automated patch-clamp, peak Nav1.5 current inhibition, 1 Hz with 50 nM ATX-II (holding potential -100 mV)", "assay_type": "cell-based", "conditions": "CHO-K1 cells stably expressing human Nav1.5, read-out: Nav1.5 IC50 (1 Hz, ATXII)", "from_the_text": "(§1) Electrophysiology was used to measure the ionic currents in isolated living cells using automated patch-clamp recording, performed using an automated patch-clamp machine called Qpatch (Sophion Bioscience). Two different assay conditions were used to identify compounds with atrial-selective potential. The 5-Hz AF-like assay has more depolarized holding potential at −85 mV to mimic atrial resting membrane potential (RMP) and was used to identify compounds of strong rate-dependence. Active, rate-dependent compounds were then screened at 1 Hz (i.e., sinus rate) at the holding potential of −100 mV to mimic the ventricular scenario and help identify compounds with the largest potency separation or attenuation from the 5-Hz AF-like assay. Such compounds have the potential for treating AF without the QRS liability inherent to Class Ic drugs.\n(§2) The sodium current conducted through a cell (via Nav1.5) or electrical signals were processed through a low-pass filter at 5 KHz, re-digitalized and acquired at 20 kHz. Series resistance was not compensated and leak subtraction was performed.\n(§3) 1 to 3 million Chinese Hamster Ovary cells (also known as CHO-K1) stably expressing human Nav1.5 were seeded into […] culture flasks with 25 mL medium (consisting of Gibco Dulbecco's Modified Eagle Medium as a base medium with 1% MEM non-essential amino acids, 400 μg/mL Geneticin, 5 μg/mL puromycin and 10% fetal bovine serum) 48-72 hours prior to the experiments. On the day of the experiment, cells were washed once with phosphate-buffered saline (also known as PBS; Gibco) detached with Detachin™ (Genlantis), and re-suspended in CHO—S-SFM II media (Gibco) at 200,000 cells/mL. The CHO—S-SFM II was replaced with assay solutions prior to the assays. Whole-cell currents were recorded at room temperature in the whole-cell configuration. The external aqueous assay solution (pH=7.4; Osm=307-315) contained the following (the concentration for each component is expressed in parentheses in mM): NaCl (140 mM), KCl (4 mM), CaCl2) (2 mM), MgCl2 (1 mM), 4-(2-hydroxyethyl)-1-piperazineethanesulfonic acid, also known as HEPES (10 mM), and glucose (5 mM). The internal aqueous assay solution (pH=7.2; Osm=292-295) contained the following (the concentration for each component is expressed in parentheses in mM): CsF (110 mM), CsCl (10 mM), NaCl (10 mM), HEPES (10 mM), and ethylene glycolbis(β-aminoethyl ether)-N,N,N′,N′-tetraacetic acid, also known as EGTA (10 mM).\nTo assess peak Nav1.5 current inhibition mimicking a ventricular condition at sinus rate with or without ATX-II (Nav1.5 IC50 (1 Hz, ATXII) (μM) or (1 Hz, Sinus Rate) (μM)), compounds were first prepared at 10 mM in DMSO, and cells were pre-incubated with test compounds at each concentration for 3 min. in an ascending order of 0, 0.37, 1.1, 3.3, 10 and 30 uM. In the assay with ATX-II (Alomone Labs), 50 nM ATX-II was included during the 3-min. compound incubation. A square pulse (−10 mV; 400 ms and a holding potential at −100 mV) was run at 1 Hz for 25 s until no further inhibition or Nav1.5 current change was observed. The percent inhibition (expressed as ([Iafter compound treatment/Ibefore compound treatment]×100%) is calculated by normalizing the peak current amplitude at the last pulse of each of the 6 compound concentrations by the amplitude before exposure to the test compound. The compiled data was further normalized by vehicle control (DMSO) to account for Nav1.5 current run-down, and IC50 was calculated by Matlab (MathWorks, USA).", "units": {"IC50": "µM"}}
{"compound": "CC(O)(CS(N)(=O)=O)c1ccc(Cl)c(-c2nnn(Cc3cc(OC(F)(F)F)ccc3F)n2)n1", "note": "(single isomer, unassigned) [Example 27, (R or S)-2-(5-chloro-6-(2-(2-fluoro-5-(trifluoromethoxy)benzyl)-2H-tetrazol-5-yl)pyridin-2-yl)-2-hydroxypropane-1-sulfonamide]", "IC50": 4.1}
{"compound": "CC(O)(CS(N)(=O)=O)c1cccc(-c2nnn(Cc3cc(Cl)ccc3F)n2)n1", "note": "(single isomer, unassigned) [Example 21, (R or S)-2-(6-(2-(5-chloro-2-fluorobenzyl)-2H-tetrazol-5-yl)pyridin-2-yl)-2-hydroxypropane-1-sulfonamide]", "IC50": "> 30"}
{"compound": "CC(O)(CS(N)(=O)=O)c1ccc(Cl)c(-c2nnn(Cc3cc(OC(F)(F)F)ccc3F)n2)n1", "note": "(single isomer, unassigned) [Example 28, (R or S)-2-(5-chloro-6-(2-(2-fluoro-5-(trifluoromethoxy)benzyl)-2H-tetrazol-5-yl)pyridin-2-yl)-2-hydroxypropane-1-sulfonamide]", "IC50": 3.2}
{"biological_target": "T1, human Nav1.5", "assay": "Qpatch automated patch-clamp, peak Nav1.5 current inhibition, 5-Hz AF-like assay (holding potential -85 mV)", "assay_type": "cell-based", "conditions": "CHO-K1 cells stably expressing human Nav1.5, Table 6, Examples 63-90, read-out: Nav1.5 IC50 (5 Hz, AF Rate)", "from_the_text": "as §1, §2, §3\n(§4) To assess peak Nav1.5 current inhibition in an atrial fibrillation-mimicking condition (Nav1.5 IC50 (5 Hz, AF-like rate) (μM)), compounds were first prepared at 10 mM in DMSO, and cells were pre-incubated with test compounds at each concentration for 3 min. in an ascending order of 0, 0.37, 1.1, 3.3, 10 and 30 μM. An atrial action potential-like protocol consisting of a voltage ramp (+10 mV to −85 mV for a 150 ms duration and a holding potential at −85 mV) was then applied to cells at 5 Hz for 12 s until no further current change or inhibition was observed. The percent inhibition (expressed as ([Iafter compound treatment/Ibefore compound treatment]×100%) is calculated by normalizing the peak current amplitude at the last pulse of each of the 6 compound concentrations by the amplitude before exposure to the test compound. The compiled data was further normalized by vehicle control (DMSO) to account for Nav1.5 current run-down, and IC50 was calculated by Matlab (MathWorks, USA).", "units": {"IC50": "µM"}}
{"compound": "C[C@](O)(CS(N)(=O)=O)c1cccc(-c2nnn(Cc3cc(Cl)c(F)cc3F)n2)n1", "note": "[Example 81]", "IC50": 21}
{"compound": "C[C@](O)(CS(N)(=O)=O)c1cccc(-c2nnn(Cc3c(F)cccc3Br)n2)n1", "note": "[Example 67]", "IC50": 8.1}
{"compound": "C[C@](O)(CS(N)(=O)=O)c1cccc(-c2nnn(Cc3cccc(Cl)c3Cl)n2)n1", "note": "[Example 70]", "IC50": 22}
{"compound": "COc1ccc(F)c(Cn2nnc(-c3cccc([C@@](C)(O)CS(N)(=O)=O)n3)n2)c1", "note": "[Example 76]", "IC50": 17}
{"compound": "C[C@](O)(CS(N)(=O)=O)c1cccc(-c2nnn(Cc3c(F)ccc(Cl)c3F)n2)n1", "note": "[Example 73]", "IC50": 19}
{"compound": "C[C@](O)(CS(N)(=O)=O)c1cccc(-c2nnn(Cc3cc(Cl)cc(OC(F)(F)F)c3)n2)n1", "note": "[Example 88]", "IC50": 28}
{"compound": "C[C@](O)(CS(N)(=O)=O)c1cccc(-c2nnn(Cc3cc(OC(F)(F)F)ccc3Br)n2)n1", "note": "[Example 86]", "IC50": 6.3}
{"compound": "C[C@](O)(CS(N)(=O)=O)c1cccc(-c2nnn(Cc3c(F)cccc3C(F)(F)F)n2)n1", "note": "[Example 79]", "IC50": 13}
{"compound": "C[C@](O)(CS(N)(=O)=O)c1cccc(-c2nnn(Cc3cccc(Br)c3F)n2)n1", "note": "[Example 66]", "IC50": 28}
{"compound": "C[C@](O)(CS(N)(=O)=O)c1cccc(-c2nnn(Cc3cc(Cl)ccc3C(F)(F)F)n2)n1", "note": "[Example 89]", "IC50": 27}
{"compound": "C[C@](O)(CS(N)(=O)=O)c1cccc(-c2nnn(Cc3ccc(Cl)c(C(F)(F)F)c3)n2)n1", "note": "[Example 80]", "IC50": 14}
{"compound": "C[C@](O)(CS(N)(=O)=O)c1cccc(-c2nnn(Cc3cccc(OC(F)(F)F)c3)n2)n1", "note": "[Example 82]", "IC50": 7.3}
{"compound": "C[C@](O)(CS(N)(=O)=O)c1cccc(-c2nnn(Cc3c(C(F)(F)F)ccc(Cl)c3Cl)n2)n1", "note": "[Example 87]", "IC50": 9.3}
{"compound": "Cc1cccc(Cn2nnc(-c3cccc([C@@](C)(O)CS(N)(=O)=O)n3)n2)c1C", "note": "[Example 69]", "IC50": 11}
{"biological_target": "T1, human Nav1.5", "assay": "Qpatch automated patch-clamp, peak Nav1.5 current inhibition, 5-Hz AF-like assay (holding potential -85 mV)", "assay_type": "cell-based", "conditions": "CHO-K1 cells stably expressing human Nav1.5, holding potential -85 mV, Table 5, read-out: Nav1.5 IC50 (5 Hz, AF Rate)", "from_the_text": "as §1, §2, §3, §4", "units": {"IC50": "µM"}}
{"compound": "CC(O)(CS(N)(=O)=O)c1ccc(Cl)c(-c2nnn(Cc3cc(OC(F)(F)F)ccc3F)n2)n1", "note": "(single isomer, unassigned) [Example 27, (R or S)-2-(5-chloro-6-(2-(2-fluoro-5-(trifluoromethoxy)benzyl)-2H-tetrazol-5-yl)pyridin-2-yl)-2-hydroxypropane-1-sulfonamide]", "IC50": 0.8}
{"compound": "CC(O)(CS(N)(=O)=O)c1cccc(-c2nnn(Cc3cc(Cl)ccc3F)n2)n1", "note": "(single isomer, unassigned) [Example 21, (R or S)-2-(6-(2-(5-chloro-2-fluorobenzyl)-2H-tetrazol-5-yl)pyridin-2-yl)-2-hydroxypropane-1-sulfonamide]", "IC50": 6.3}
{"compound": "CC(O)(CS(N)(=O)=O)c1ccc(Cl)c(-c2nnn(Cc3cc(OC(F)(F)F)ccc3F)n2)n1", "note": "(single isomer, unassigned) [Example 28, (R or S)-2-(5-chloro-6-(2-(2-fluoro-5-(trifluoromethoxy)benzyl)-2H-tetrazol-5-yl)pyridin-2-yl)-2-hydroxypropane-1-sulfonamide]", "IC50": 0.7}
{"compound": "NS(=O)(=O)CC(O)c1cccc(-c2nnn(Cc3cc(OC(F)(F)F)ccc3F)n2)n1", "note": "(racemic) [Example 48, 2-(6-(2-(2-fluoro-5-(trifluoromethoxy)benzyl)-2H-tetrazol-5-yl)pyridin-2-yl)-2-hydroxyethane-1-sulfonamide]", "IC50": 5.5}
{"compound": "CC(O)(CS(N)(=O)=O)c1cccc(-c2nnn(Cc3c(F)ccc4c3OC(F)(F)O4)n2)n1", "note": "(racemic) [Rac-3 + 4, 2-hydroxy-2-(6-(2-((2,2,5-trifluorobenzo[d][1,3]dioxol-4-yl)methyl)-2H-tetrazol-5-yl)pyridin-2-yl)propane-1-sulfonamide]", "IC50": 7}
{"compound": "CC(O)(CS(N)(=O)=O)c1cccc(-c2nnn(Cc3cc(OCC(F)(F)F)ccc3F)n2)n1", "note": "(single isomer, unassigned) [Example 30, (R or S)-2-(6-(2-(2-fluoro-5-(2,2,2-trifluoroethoxy)benzyl)-2H-tetrazol-5-yl)pyridin-2-yl)-2-hydroxypropane-1-sulfonamide]", "IC50": 1}
{"compound": "CC(C(O)c1cccc(-c2nnn(Cc3cc(OC(F)(F)F)ccc3F)n2)n1)S(N)(=O)=O", "note": "(single isomer, unassigned) [Example 50, (JR or 1S,2R or 2S)-1-(6-(2-(2-fluoro-5-(trifluoromethoxy)benzyl)-2H-tetrazol-5-yl)pyridin-2-yl)-1-hydroxypropane-2-sulfonamide]", "IC50": 6.6}
{"compound": "CC(C(O)c1cccc(-c2nnn(Cc3cc(OC(F)(F)F)ccc3F)n2)n1)S(N)(=O)=O", "note": "(single isomer, unassigned) [Example 49, (JR or 1S,2R or 2S)-1-(6-(2-(2-fluoro-5-(trifluoromethoxy)benzyl)-2H-tetrazol-5-yl)pyridin-2-yl)-1-hydroxypropane-2-sulfonamide]", "IC50": 5.7}
{"compound": "CC(O)(CS(N)(=O)=O)c1cccc(-c2nnn(Cc3cc(F)ccc3F)n2)n1", "note": "(single isomer, unassigned) [Example 18, (R or S)-2-(6-(2-(2,5-difluorobenzyl)-2H-tetrazol-5-yl)pyridin-2-yl)-2-hydroxypropane-1-sulfonamide]", "IC50": 20}
{"compound": "CC(O)(CS(N)(=O)=O)c1cccc(-c2nnn(Cc3cc(OC(F)(F)F)ccc3F)n2)c1", "note": "(single isomer, unassigned) [Example 25, (R or S)-2-(3-(2-(2-fluoro-5-(trifluoromethoxy)benzyl)-2H-tetrazol-5-yl)phenyl)-2-hydroxypropane-1-sulfonamide]", "IC50": 5.5}
{"compound": "CC(O)(CS(N)(=O)=O)c1cccc(-c2nnn(Cc3cc(OC(F)(F)F)ccc3F)n2)c1", "note": "(single isomer, unassigned) [Example 26, (R or S)-2-(3-(2-(2-fluoro-5-(trifluoromethoxy)benzyl)-2H-tetrazol-5-yl)phenyl)-2-hydroxypropane-1-sulfonamide]", "IC50": 1.8}
{"compound": "CC(O)(CS(N)(=O)=O)c1cccc(-c2nnn(Cc3cc(OC(F)(F)F)ccc3F)n2)n1", "note": "(racemic) [Rac-1 + 2, 2-(6-(2-(2-fluoro-5-(trifluoromethoxy)benzyl)-2H-tetrazol-5-yl)pyridin-2-yl)-2-hydroxypropane-1-sulfonamide]", "IC50": 3.6}
{"compound": "CC(O)(CS(N)(=O)=O)c1nc(-c2nnn(Cc3cc(OC(F)(F)F)ccc3F)n2)ccc1Cl", "note": "(single isomer, unassigned) [Example 43, (R or S)-2-(3-chloro-6-(2-(2-fluoro-5-(trifluoromethoxy)benzyl)-2H-tetrazol-5-yl)pyridin-2-yl)-2-hydroxypropane-1-sulfonamide]", "IC50": 8.2}
{"compound": "CC(O)(CS(N)(=O)=O)c1cccc(-c2nnn(Cc3cc(F)ccc3F)n2)n1", "note": "(single isomer, unassigned) [Example 17, (R or S)-2-(6-(2-(2,5-difluorobenzyl)-2H-tetrazol-5-yl)pyridin-2-yl)-2-hydroxypropane-1-sulfonamide]", "IC50": 24}
